From patent publication US20020028940A1, “Indolyl-substituted phenylacetic acid derivatives” (priority 1995, published 2002)
Where two headings read alike, the source gives them in different places.

Legend:
[1] = test system: intestinal triglyceride absorption; assay: Inhibition of intestinal triglyceride absorption in vivo (rats); design: species or system male Wistar rats; conditions: fasting rats, postprandial serum triglyceride increase after tragacanth-olive oil loading
Description: 3. Inhibition of intestinal triglyceride absorption in vivo (rats)
The substances which are to be investigated in vivo for their inhibiting action on triglyceride absorption are administered orally to male Wistar rats having a body weight of between 170 and 230 g. For this purpose, the animals are divided into groups of 6 animals 18 hours before administration of the substance, and their food is then withdrawn. Drinking water is available to the animals ad libitum. The animals of the control groups are given an aqueous tragacanth suspension or a tragacanth suspension which comprises olive oil. The tragacanth-olive oil suspension is prepared with an Ultra-Turrax. The substances to be investigated are suspended in a corresponding tragacanth-olive oil suspension, likewise with an Ultra-Turrax, directly before administration of the substance.
Before administration by a stomach tube, blood is taken from each rat by puncture of the retroorbital venous plexus for determination of the basal serum triglyceride content. The tragacanth suspension, the tragacanth-olive oil suspensions without a substance (control animals) or the substances, suspended in a corresponding tragacanth-olive oil suspension, are then administered to the fasting animals using a stomach tube. Further blood for determination of the postprandial serum triglyceride increase is as a rule taken 1, 2 and 3 hours after the administration by a stomach tube.
The blood samples are centrifuged and, after isolation of the serum, the triglycerides are determined photometrically with an EPOS-Analyzer 5060 (Eppendorf Gerätebau, Netheler & Hinz GmbH, Hamburg). The triglycerides are determined completely enzymatically with a commercially available UV test.
The postprandial increase in serum triglycerides is determined by subtraction of the triglyceride prevalue of each animal from its corresponding postprandial triglyceride concentrations (1, 2 and 3 hours after administration).
The average is taken of the differences (in mmol/l) at each point in time (1, 2 and 3 hours) in the groups, and the means of the increase in serum triglycerides (ΔTG) of the animals treated with the substance are compared with the animals which received only the tragacanth-oil suspension.
The course of the serum triglycerides in the control animals, which were given only tragacanth, is also calculated. The effect of the substance at each point in time (1, 2 or 3 hours) is determined as follows and stated in Δ% of the oil-loaded control. [formula]
Effect of 10 mg of test substance/kg of body weight p.o. on the increase in triglycerides (Δ%) 2 hours after a triglyceride loading in the serum of fasting rats. The increase in serum triglycerides of fat-loaded control animals, based on the serum triglycerides level of tragacanth control animals, corresponds to 100%. n=6 animals per group.
The statistical analysis is carried out with the Student t-test after first checking the variances for homogeneity.

[2] = test system: ApoB-100-associated lipoproteins; assay: Inhibition of the release of ApoB-100-associated lipoproteins from hepatic cells (HepG2), LDL immunoassay; format: cell-based, human; conditions: concentration at which adsorption of light (450 nm) is inhibited by 50% compared with solvent control
Description: 1. Inhibition of the release of ApoB-100-associated lipoproteins
The test for detection of the inhibition of the release of ApoB-100-associated lipoproteins from hepatic cells was carried out in vitro with cultured hepatic cells, preferably with cells of the human line HepG2. These cells are cultured under standard conditions in medium for culture of eukaryotic cells, preferably in RPM 1640 with 10% foetal calf serum. HepG2 cells synthesize and secrete into the culture supernatant ApoB-100-associated lipoprotein particles, which are in principle built up similarly to the VLDL and LDL particles which are to be found in plasma.
These particles can be detected with an immunoassay for human LDL. This immunoassay is carried out with antibodies which have been induced against human LDL in rabbits under standard conditions. The anti-LDL antibodies (rab-anti-LDL-Ab) were purified by affinity chromatography on an immunosorbent with human LDL. These purified rab-anti-LDL-Ab are adsorbed onto the surface of plastic. This adsorption is expediently carried out on the plastic surface of microtiter plates with 96 wells, preferably on MaxiSorp plates. If ApoB-100-associated particles are present in the supernatant of Hep-G2 cells, these can then bond to the insolubilized rab-anti-LDL-Ab, and an immune complex bonded to the plastic surface is formed. Non-bonded proteins are removed by washing. The immune complex on the plastic surface is detected with monoclonal antibodies, which have been induced against human LDL and purified under standard conditions. These antibodies were conjugated with the enzyme peroxidase. Peroxidase converts the colourless substrate TMB into a coloured product in the presence of H2O2. After acidification of the reaction mixture with H2SO4, the specific adsorption of light is determined at 450 nm, this being a measure of the amount of ApoB-100-associated particles which had been secreted by the HepG2 cells into the culture supernatant.
The IC50 value indicates the concentration of substance at which the adsorption of light is inhibited by 50% compared with the control (solvent control without the substance).

SMILES | IC50 [2] | ED50 ([1]; p.o.) | also measured
O=C(NC(CO)c1ccccc1)C(c1ccc(Cn2ccc3ccc(Cl)cc32)cc1)C1CCCC1 (mixture of isomers) [Example 33] | 41.1 nM |  | 
CCOC(=O)c1cc2cc(Cl)ccc2n1Cc1ccc(C(C(=O)NC(CO)c2ccccc2)C2CCCC2)cc1 (single isomer, unassigned) [Example 28] | 62.6 nM |  | 
COc1cccc2c1ccn2Cc1ccc(C(C(=O)NC(CO)c2ccccc2)C2CCCC2)cc1 (mixture of isomers) [Example 36] | 72.5 nM |  | 
Cc1c(C)n(Cc2ccc(C(C(=O)NC(CO)c3ccccc3)C3CCCCC3)cc2)c2ccccc12 (mixture of isomers) [Example 8] | 50.5 nM |  | 
Cc1c(C)n(Cc2ccc(C(C(=O)N[C@@H](CO)c3ccccc3)C3CCCCCC3)cc2)c2ccccc12 (stereo partly drawn) [Example 2, 2-Cycloheptyl-N-(2-hydroxy-1-(R)-phenylethyl)-2-[4-(2,3-dimethylindol-1-yl-methyl)phenyl]acetamide] |  |  | ED50 ([1]; Rattus norvegicus, po, read-out: TG absorption ED50 or % inhibition mg/kg/p.o.): < 3 mg/kg; IC50 ([2]; Homo sapiens): 29.5 nM; melting point: 163 °C
O=C(NC(CO)c1ccccc1)C(c1ccc(Cn2c(-c3ccccc3)cc3ccccc32)cc1)C1CCCC1 (single isomer, unassigned) [Example 15] | 47.3 nM |  | 
CCOC(=O)c1cc2cc(OC)ccc2n1Cc1ccc(C(C(=O)NC(CO)c2ccccc2)C2CCCC2)cc1 (mixture of isomers) [Example 23] | 36.1 nM | 2 mg/kg | 
CCOC(=O)c1cc2ccccc2n1Cc1ccc(C(C(=O)NC(CO)c2ccccc2)C2CCCCCC2)cc1 (single isomer, unassigned) [Example 22] | 23.5 nM |  | 
Cc1cn(Cc2ccc(C(C(=O)NC(CO)c3ccccc3)C3CCCCCC3)cc2)c2ccccc12 (mixture of isomers) [Example 29] | 40.5 nM | 3 mg/kg | 
O=C(NC(CO)c1ccccc1)C(c1ccc(Cn2ccc3ccc(Cl)cc32)cc1)C1CCCC1 (single isomer, unassigned) [Example 35] | 308 nM |  | 
O=C(NC(CO)c1ccccc1)C(c1ccc(Cn2ccc3ccc(Cl)cc32)cc1)C1CCCC1 (single isomer, unassigned) [Example 34] | 12.3 nM | 2 mg/kg | 
CCOC(=O)c1cc2cc(Cl)ccc2n1Cc1ccc(C(C(=O)NC(CO)c2ccccc2)C2CCCC2)cc1 (mixture of isomers) [Example 26] | 26.8 nM |  | 
O=C(NC(CO)c1ccccc1)C(c1ccc(Cn2c(-c3ccccc3)cc3ccccc32)cc1)C1CCCC1 (single isomer, unassigned) [Example 14] | 474 nM |  | 
Cc1c(C)n(Cc2ccc(C(C(=O)NC(CO)c3ccccc3)C3CCCC3)cc2)c2ccccc12 (single isomer, unassigned) [Example 7] | 229 nM |  | 
O=C(NC(CO)c1ccccc1)C(c1ccc(Cn2c(-c3ccccc3)cc3ccccc32)cc1)C1CCCCCC1 (mixture of isomers) [Example 16] | 35.9 nM | >2 mg/kg | 

Second part, led by results:

IC50 [2] | SMILES | ED50 ([1]; p.o.) | also measured
4.5 nM | CCOC(=O)c1cc2ccccc2n1Cc1ccc(C(C(=O)NC(CO)c2ccccc2)C2CCCCCC2)cc1 (single isomer, unassigned) [Example 21] | >>6 mg/kg | 
6.5 nM | CCOC(=O)c1cc2cc(Cl)ccc2n1Cc1ccc(C(C(=O)NC(CO)c2ccccc2)C2CCCC2)cc1 (single isomer, unassigned) [Example 27] | >2 mg/kg | 
270 nM | COc1cccc2c1ccn2Cc1ccc(C(C(=O)NC(CO)c2ccccc2)C2CCCC2)cc1 (single isomer, unassigned) [Example 38] |  | 
48.5 nM | O=C(NC(CO)c1ccccc1)C(c1ccc(Cn2ccc3cc(Cl)ccc32)cc1)C1CCCCCC1 (mixture of isomers) [Example 32] |  | 
83.2 nM | Cc1c(C)n(Cc2ccc(C(C(=O)NC(CO)c3ccccc3)C3CCCC3)cc2)c2ccccc12 (mixture of isomers) [Example 5] |  | 
31.1 nM | COc1cccc2c1ccn2Cc1ccc(C(C(=O)NC(CO)c2ccccc2)C2CCCC2)cc1 (single isomer, unassigned) [Example 37] | >2 mg/kg | 
428 nM | Cc1cccc2ccn(Cc3ccc(C(C(=O)NC(CO)c4ccccc4)C4CCCC4)cc3)c12 (mixture of isomers) [Example 31] |  | 
8.1 nM | CCOC(=O)c1cc2ccccc2n1Cc1ccc(C(C(=O)NC(CO)c2ccccc2)C2CCCCCC2)cc1 (mixture of isomers) [Example 20] | >>10 mg/kg | 
37.4 nM | Cc1c(C)n(Cc2ccc(C(C(=O)NC(CO)c3ccccc3)C3CCCC3)cc2)c2ccccc12 (single isomer, unassigned) [Example 6] |  | 
40.5 nM | Cc1cc2ccccc2n1Cc1ccc(C(C(=O)NC(CO)c2ccccc2)C2CCCCCC2)cc1 (mixture of isomers) [Example 4] | <10 mg/kg | 
38.1 nM | CCOC(=O)c1cc2ccccc2n1Cc1ccc(C(C(=O)NC(CO)c2ccccc2)C2CCCC2)cc1 (mixture of isomers) [Example 17] |  | 
